Experimental data taken from patent EP4417202A1, “ANTI-CANCER ACTION OF BAG1-SELECTIVE IMIDAZOPYRIDINE COMPOUNDS IN STEROID HORMONE RECEPTOR-POSITIVE BREAST AND PROSTATE CANCER” (Karlsruher Institut für Technologie, priority 2023, dated 2024).

Tests used:
[1] = tested on: reactive oxygen species (ROS); experiment: Reduced 2',7'-dichlorofluorescein (DCF) diacetate oxidation assay; format: cell-based; details: 48 h
Description: For measurements of ROS levels, MCF-7 and T47D cells were seeded at 1×10^3 cells in RPMI 1640 supplemented with 10% FBS and treated with 10^-9 - 10^-6 M X15695 for 48 h. Afterwards, cells were loaded with 10 µM) H2DCF-DA (Thermo Fisher Scientific, Karlsruhe, Germany) in phenol red-free medium for 40 min. Cells were subsequently washed with medium and further incubated in medium for 120 min before analysis of fluorescence at 485 nm excitation and 530 nm emission using a multi-well fluorescence reader (SpectraMax iD3, Molecular Devices with SoftMax Pro 7 software, Biberach an der Riss, Germany). After the DCF assay, cells were frozen at -80°C overnight. After thawing, DNA was stained with a Hoechst dye (10 µg/ml final concentration) for 30 min at room temperature and fluorescence was measured at 352 nm excitation and 454 nm emission in a multi-well fluorescence reader (SpectraMax iD3, Molecular Devices with SoftMax Pro 7 software, Biberach an der Riss, Germany). DCF fluorescent intensities were normalized to Hoechst fluorescent intensities.

BAG1M = target: T1, BAG1M (Homo sapiens, UniProt Q99933); experiment: Cellular thermal shift assay (Tagg-CETSA) in MCF-7 cells; format: binding; details: 1 µM, 1 h
T1 construct: endogenous in cells; host or cells: MCF-7
T1 sequence (Q99933 72-345): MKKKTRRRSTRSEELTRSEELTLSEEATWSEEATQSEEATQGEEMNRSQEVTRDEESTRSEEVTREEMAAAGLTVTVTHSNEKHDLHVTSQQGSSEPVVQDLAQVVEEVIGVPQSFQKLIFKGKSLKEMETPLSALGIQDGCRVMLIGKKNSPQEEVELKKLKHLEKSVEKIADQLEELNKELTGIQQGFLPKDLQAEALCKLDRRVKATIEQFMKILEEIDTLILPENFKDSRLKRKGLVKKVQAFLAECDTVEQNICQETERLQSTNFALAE
Description: (§1) To determine the aggregation temperature (Tagg-CETSA), MCF-7 cells were harvested and resuspended at a concentration of 2×10^6 cells/ml. X15695 (1 µM) or the same volume of DMSO were added to the cell suspension and incubated for 1 h at 37°C. Cells were washed and resuspend with phosphate-buffered saline (PBS) to a final concentration of 3×10^7 cells/ml. The cell suspension was evenly distributed into different tubes and treated with a gradient of temperature ranging from 37 to 62°C for 3 min. Cells were incubated 3 min at room temperature to ensure a uniform temperature between different tubes and then snap frozen with liquid nitrogen. Cells were lysed by freeze/thaw cycles with liquid nitrogen and centrifuged at 20,000 g for 20 min. Stable BAG proteins present in the supernatant were quantified by Western blotting using an anti-BAG1, 2, 3, and 5 antibodies and β-actin antibody for loading control.

BAG1L = target: T2, BAG1L (Homo sapiens, UniProt Q99933); experiment: as above; format: binding; details: 1 µM, 1 h
T2 construct: endogenous in cells; host or cells: MCF-7
T2 sequence (Q99933 whole entry): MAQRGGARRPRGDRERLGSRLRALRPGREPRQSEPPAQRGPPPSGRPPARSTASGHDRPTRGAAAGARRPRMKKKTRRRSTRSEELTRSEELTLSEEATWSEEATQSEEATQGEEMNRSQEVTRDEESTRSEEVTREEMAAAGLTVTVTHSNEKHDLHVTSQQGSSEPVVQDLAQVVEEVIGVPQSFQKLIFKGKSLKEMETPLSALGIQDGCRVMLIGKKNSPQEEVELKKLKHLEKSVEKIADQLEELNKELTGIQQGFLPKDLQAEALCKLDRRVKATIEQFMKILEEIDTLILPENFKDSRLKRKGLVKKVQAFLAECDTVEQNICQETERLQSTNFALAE
Description: as §1

BAG1 = target: T3, BAG1 (Homo sapiens, UniProt Q99933); experiment: as above; format: binding; details: 1 µM, 1 h
T3 construct: endogenous in cells; host or cells: MCF-7
T3 sequence (Q99933 116-345): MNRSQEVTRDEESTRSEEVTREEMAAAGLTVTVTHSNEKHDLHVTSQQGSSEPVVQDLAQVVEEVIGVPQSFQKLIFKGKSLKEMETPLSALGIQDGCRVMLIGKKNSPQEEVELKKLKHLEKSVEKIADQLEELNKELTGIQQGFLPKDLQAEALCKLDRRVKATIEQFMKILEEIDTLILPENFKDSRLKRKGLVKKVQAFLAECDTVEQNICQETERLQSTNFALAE
Description: as §1

LAPC-4 tumors = experiment: Mouse xenograft experiment, LAPC-4; format: in vivo; details: LAPC-4 xenograft, 42 days
Description: MCF-7 and LAPC-4 cells (2×10^6) were suspended in 100 µl PBS: Matrigel (Corning NY USA, 1:1) and injected subcutaneously into both flanks of 6-7 weeks old female (for MCF-7 cells) and male (for LAPC-4 cells) athymic nude-Foxn1^nu mice (Envigo RMS GmbH, Düsseldorf, Germany). When tumor volumes were around 50 to100 mm^3, mice were randomized into four groups (7 mice per group) and treated daily by oral gavage as follows: (1) Control group (Vehicle) (corn oil, 1.0% dimethyl sulfoxide (DMSO) and (2) X15695 group, 30 mg per kg body weight) for the MCF-7 tumors or (1) Control group (Vehicle) (corn oil, 1.0% dimethyl sulfoxide (DMSO) ([…]), (3) X15695 group, 30 mg per kg body weight) and, (4) X15695 group (15 mg per kg body weight) for the LAPC-4 tumors. Body weight and tumor volumes were measured twice a week. Tumor volume was measured with a digital vernier caliper and calculated using the formula vol = length × width × height × 0.5236 and recorded or calculated relative to the starting volume which was nominally set at 100%. After 16 days for the MCF-7 tumors or 42 days for the LAPC-4 tumors, mice were sacrificed and the tumors removed, photographed, and weighed. Percent body weight change was calculated using the following formula: group percent weight change = [(new weight - initial weight)/initial weight] × 100]. Tumors were snap-frozen and stored for Western blot analysis.

LNCaP and LAPC-4 cells = experiment: Apoptosis by automated high-throughput microscopy (Hoechst / propidium iodide); format: cell-based; details: 48 h
Description: Apoptosis in LNCaP and LAPC-4 cells was measured using an automated high-throughput microscopy method known in the art. In brief, LNCaP and LAPC4 cells (5×10^3) were seeded in a 96-well plate format. Cells were treated with 10^-9 - 10^-6 M X15695, DMSO or etoposide (250 µM) for 48h. Cells were stained with Hoechst 33342 (0,15 µg/ml) and propidium iodide (PI) (0,25 µg/ml) for 30 min at 37°C. Four brightfield and fluorescence images were acquired from different positions in each well using an automated Olympus IX81 fluorescence microscope (Olympus, Hamburg, Germany). The Hoechst dye was detected at excitation 350 nm and emission 450 nm and PI dye was detected at 488 nm and 590 nm. The total number of cells (all Hoechst-stained nuclei) as well as the number of early apoptotic, late apoptotic, and necrotic cells (combination of Hoechst and PI nuclei intensity) was obtained by analyzing images with the scan^R software (version 2.7.3, Olympus, Hamburg, Germany).

[2] = tested on: TRMCF-7 cells (tamoxifen resistant MCF-7 cells); experiment: MTT cell viability assay; format: cell-based; details: 48 h
Description: […] Cells transfected with siRNA were incubated for 72 h after X15695 addition. Thereafter, the medium was exchanged for a fresh medium containing 0.5 mg/ml MTT (Sigma-Aldrich) and incubated at 37°C for 1 h to 4 h (depending on cell line) until intracellular purple formazan crystals were formed. The MTT solution was removed, and the purple crystals were dissolved in isopropanol and the optical absorbance at 595 nm was recorded using SpectraMax iD3, Molecular Devices, San Jose, CA, USA.

[3] = tested on: BAG1 in a complex with mortalin; experiment: Co-immunoprecipitation in MCF-7 cells; format: cell-based; details: 1 µM, 48 h
Description: (§2) Cells were harvested, washed with PBS, and lysed using NP-40 lysis buffer. Protein A agarose beads (Thermo Fisher Scientific) were mixed with protein G agarose beads (Thermo Fisher Scientific) (4:1) and preincubated overnight at 4°C with anti-p53 or anti-BAG1 or control IgG antibody. Cellular extracts from X15695 treated and untreated cells (1,000 µg) were incubated with antibody-preincubated protein A/G agarose beads for 3 to 4 h at room temperature. The beads with immunoprecipitated proteins were collected at 4°C by centrifugation at 1,000 g for 5 min and washed 4 to 5 times with NP-40 lysis buffer. The immunoprecipitated proteins were eluted by heating in SDS sample buffer for 5 min at 95°C and resolved on SDS-PAGE. Thereafter, they were subjected to Western blot analysis to detect mortalin, BAG1, BAG2, BAG5 and p53. Cellular extracts containing 50 to 70 µg protein from X15695 treated and untreated cells were used as the input control for the targeted proteins.

p53/mortalin complex = experiment: Co-immunoprecipitation in MCF-7 cells; format: cell-based; details: 1 µM, 48 h
Description: as §2

Fc1ccc(-c2cn3cc(C(F)(F)F)cc(Cl)c3n2)cc1 [Compound X15695, 8-Chloro-2-(4-fluorophenyl)-6-(trifluoromethyl)imidazo[1,2-a]pyridine]
ROS production ([1]; MCF-7 cells): significant dose-dependent production of ROS
ROS production ([1]; T47D cells): not in T47D cells
increase of aggregation temperature (Tagg) over vehicle (BAG1M): 1-2 °C
increase of aggregation temperature (Tagg) over vehicle (BAG1L): 1-2 °C
increase of aggregation temperature (Tagg) over vehicle (BAG1): 3 °C
tumor growth (LAPC-4 tumors; oral 30 mg/kg/day, less effective than enzalutamide (10 mg/kg/day)): effectively inhibit tumor growth over vehicle
tolerability, body weight (LAPC-4 tumors; oral): well tolerated during the study and no sign of toxicity or weight loss was observed
apoptosis (LNCaP and LAPC-4 cells): No apoptotic effect
inhibition of viability [2]: comparable activities
BAG1-mortalin interaction [3]: indeed decreased this interaction
p53-mortalin interaction (p53/mortalin complex): decreased this interaction
